Values joined by “and” are separate entries in the source; they are usually repeats but may differ in a detail not shown here. Identical values can stand only once.
Test: mn = molality of the nth substance listed, in mol/kg
Conditions: 298.15 K, 101 kPa, Liquid

CNC=O [N-methylformamide] + O
Conditions | mass density
m1 = 0.1996 | 997.54 kg/m3
m1 = 0.2 | 997.53 kg/m3 and 997.55 kg/m3
m1 = 0.3493 | 997.91 kg/m3
m1 = 0.5018 | 998.28 kg/m3
m1 = 0.5044 | 998.28 kg/m3
m1 = 0.5343 | 998.34 kg/m3
m1 = 0.9779 | 999.42 kg/m3
m1 = 0.9919 | 999.46 kg/m3
m1 = 1.011 | 999.49 kg/m3
m1 = 1.499 | 1000.63 kg/m3
m1 = 1.5 | 1000.62 kg/m3
m1 = 1.505 | 1000.65 kg/m3
m1 = 2.006 | 1001.79 kg/m3
m1 = 2.011 | 1001.79 kg/m3
m1 = 2.012 | 1001.79 kg/m3
m1 = 2.47 | 1002.77 kg/m3
m1 = 2.497 | 1002.77 kg/m3
m1 = 2.513 | 1002.86 kg/m3
m1 = 3.022 | 1003.9 kg/m3
m1 = 3.05 | 1003.95 kg/m3
m1 = 3.068 | 1004 kg/m3
m1 = 3.496 | 1004.81 kg/m3
m1 = 3.499 | 1004.82 kg/m3 and 1004.81 kg/m3
m1 = 3.989 | 1005.73 kg/m3
m1 = 3.992 | 1005.74 kg/m3
m1 = 3.997 | 1005.73 kg/m3

Source: the NIST ThermoML archive (doi:10.1021/je1003466)
